We go through 16 compounds from patent US20150183737A1, “COMPOSITIONS AND METHODS FOR SUBSTRATE-SELECTIVE INHIBITION OF ENDOCANNABINOID OXYGENATION” (Vanderbilt University, priority 2012, published 2015).

pIC50: −log10 of the molar value. “Also recorded” adds a separate entry of the source. Where two headings read alike, the source gives them in different places.

In experiment [1] the target is T1, COX-2 (Mus musculus, UniProt Q05769).
T1 sequence (Q05769 18-604): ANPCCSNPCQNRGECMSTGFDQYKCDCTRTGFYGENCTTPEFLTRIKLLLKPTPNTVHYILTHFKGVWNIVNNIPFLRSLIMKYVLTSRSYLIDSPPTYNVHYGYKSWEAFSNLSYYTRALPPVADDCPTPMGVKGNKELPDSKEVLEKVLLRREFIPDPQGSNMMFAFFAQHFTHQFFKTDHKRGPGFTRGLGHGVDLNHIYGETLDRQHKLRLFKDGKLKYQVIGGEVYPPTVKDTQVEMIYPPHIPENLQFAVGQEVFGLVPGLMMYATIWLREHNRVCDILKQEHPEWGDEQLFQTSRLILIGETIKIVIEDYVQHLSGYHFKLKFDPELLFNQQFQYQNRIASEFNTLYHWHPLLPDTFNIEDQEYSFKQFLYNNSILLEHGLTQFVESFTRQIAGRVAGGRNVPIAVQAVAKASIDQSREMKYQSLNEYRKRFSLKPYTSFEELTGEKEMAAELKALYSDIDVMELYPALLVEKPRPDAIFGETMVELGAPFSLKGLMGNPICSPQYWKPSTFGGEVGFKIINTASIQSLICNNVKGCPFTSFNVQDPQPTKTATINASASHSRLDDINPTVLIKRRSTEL
Nature of the experiment: Inhibition of COX-2 oxygenation by acetaminophen and its metabolites. The settings on record: for Inhibition of AA oxygenation: up to 1 mM. The experiment is classed as biochemical.

Experiment [2] has as its target T2, wild type mCOX-2 (Mus musculus, UniProt Q05769).
T2 sequence (Q05769 18-604): T1 sequence (Q05769 18-604)
Nature of the experiment: biochemical.

The target in experiment [3] is T3, purified murine COX-2 (Mus musculus, UniProt Q05769).
T3 sequence (Q05769 18-604): T1 sequence (Q05769 18-604)
Nature of the experiment: Inhibition of mCOX-2-dependent oxygenation of 2-AG and AA by lumiracoxib and derivatives in vitro. Also on record: made in house; host or cells: insect cells; dose or concentration left out as unconfirmed. It is filed as biochemical.

Experiment [4] deals with T4, mCOX-2 (Mus musculus, UniProt Q05769).
T4 construct: made in house; host or cells: insect cells
T4 sequence (Q05769 18-604): T1 sequence (Q05769 18-604)
Nature of the experiment: Inhibition of COX-2-mediated oxygenation of arachidonic acid and 2-AG, purified enzyme, 15 min preincubation. It is filed as biochemical, murine. Here is the method: Various concentrations of inhibitor (or DMSO) were incubated with mCOX-2 (200 nM) for 5-15 minutes in 100 mM Tris-HCl with 0.5 mM phenol, pH 8.0. For mutant mCOX-2 experiments, the enzyme concentration was adjusted such that the turnover was approximately equal to wild type enzyme. The preincubation time was determined on the basis of previous reports regarding the time required to achieve maximal inhibition, and preincubation was performed at 25° C. except for the final 3 minutes, which took place at 37° C. […] After the preincubation of enzyme and inhibitor, arachidonic acid or 2-AG was added for 30 seconds at 37° C. The reaction was quenched with ice-cold ethyl acetate containing 0.5% (v/v) acetic acid and 1 μM PGE2-d4 and PGE2-G-d5. The solution was then vigorously mixed and cooled on ice. The organic layer was separated and evaporated to near-dryness under nitrogen. […] Peak areas for analytes were normalized to the appropriate internal standard to determine the amount of product formation, and the amount of inhibition was determined by normalization to a DMSO control.

Experiment [5] deals with brain eCB, AA and PG levels. Nature of the experiment: Brain eCB, NAE, MAG, AA and PG levels after i.p. injection. The experiment is classed as in vivo, mice. As to conditions: for Brain AA levels / Brain PG levels: 10 mg/kg i.p. (Compound A: any dose tested); for Brain AEA levels: 10 mg/kg i.p. Here is the method:
5-7 week old male ICR mice were used for all experiments with the exception of knockout animals (Harlan, Indianapolis, Ind., United States of America). Mice were housed 5 per […]. All behavioral tests were conducted during the light cycle between 0900 and 1700. KO and WT littermate controls for FAAH^(−/−) and COX-2^(−/−) mice were derived from heterozygote breeding pairs, bred and genotyped as described in Uddin et al., 2011. CB1^(−/−) mice were bred from homozygote breeding pairs and genotyped as described in Pan et al., 2008. Mice were group-housed on a 12:12 light-dark cycle (lights on at 06:00), with food and water available ad libitum. All animal studies were approved by the Vanderbilt Institutional Animal Care and Use Committee and conducted in accordance with the Guide for the Care and Use of Laboratory Animals of the United States National Institutes of Health.
(§1) Mice were sacrificed by cervical dislocation and decapitation. The brain, lungs, liver, stomach, small intestines, and kidneys were then rapidly removed and frozen on a metal block in dry ice. The tissue was then placed in a tube and stored at −80° C. until extraction, usually one day after harvesting. For PG and eCB analysis, lipid extraction from tissue was carried out as described in Patel et al., 2009.
(§2) Analytes were quantified using LC-MS/MS on a Quantum triple-quadrupole mass spectrometer in positive-ion mode using selected reaction monitoring. Detection of eicosanoids was performed as described in Kingsley & Marnett, 2007. For fatty acid analysis the mobile phases used were 80 μM AgOAc with 0.1% (v/v) acetic acid in H2O (solvent A) and 120 μM AgOAc with 0.1% (v/v) acetic acid in MeOH (solvent B). The analytes were eluted using a gradient from 20% A to 99% B over 5 minutes. The transitions used were m/z 300→282 for PEA, m/z 328→310 for SEA, m/z 434→416 for OEA, m/z 456→438 for AEA, m/z 464→446 for AEA-d8, m/z 331→257 for 2-PG, m/z 359→285 for 2-SG, m/z 463→389 for 2-OG, m/z 485→411 for 2-AG, m/z 493→419 for 2-AG-d8, m/z 519→409 for AA, and m/z 527→417 for AA-d8. Peak areas for the analytes were normalized to the appropriate internal standard and then normalized to tissue mass for in vivo samples.

Experiment [6] deals with ICR mice. Nature of the experiment: Novel open field test. It is filed as in vivo. The settings on record: 10 mg/kg. Here is the method: Animals were tested for open-field activity in a novel environment one hour after i.p. injection of compound as described in Sumislawski et al., 2011. Briefly, one-hour sessions were performed using automated experimental chambers (27.9 27.9 cm; MEDOFA-510; MED Associates, Ga., Vermont, United States of America) under constant illumination within a sound-attenuated room. Analysis of open field activity was performed using Activity Monitor v5.10 (MED Associates).

The subject of experiment [7] is peripheral tissue eCB, NAE, MAG and PG levels. Nature of the experiment: Peripheral tissue NAE, MAG and PG levels after i.p. injection. It is filed as in vivo, mice. The settings on record: stomach, heart, kidney, lung, intestine. As to the method:
as §1
as §2, with “samples. […]” for “samples.”

The mark [8] stands for this setting: 2-AG IC50, 2-AG oxygenation by COX-2.
Setting [9] is: AA IC50, AA oxygenation by COX-2.
Setting [10] is: 15 min incubation, read-out: Maximum inhibition of AA oxygenation (converted).
Where [11] appears, read: read-out: IC50, COX-2 oxygenation of 2-AG, 50 μM 2-AG, 15 min preincubation, LC-MS/MS.

Usually pIC50 stands for the IC50 on a negative log10 scale, so that one unit is a factor of ten. As to `Nc1ccc(O)cc1` [4-aminophenol], in experiment [1], the negative logarithm of the IC50 (pIC50) is 4.15 and the “Inhibition of AA oxygenation” value is on record as “No inhibition”.
As to `CC(=O)Nc1ccc(O)cc1` [APAP, acetaminophen], the “Inhibition of AA oxygenation” value in experiment [1] is “No inhibition”.
On to `COc1ccc2c(c1)c(CC(N)=O)c(C)n2C(=O)c1ccc(Cl)cc1` [B], for which the pIC50 in experiment [2] (setting [8]) is 6.23; in experiment [2] (setting [9]), 6.21.
For `COc1ccc2c(c1)c(CC(=O)NCCO)c(C)n2C(=O)c1ccc(Cl)cc1` [C] the same measures were 6.63 and 6.58.
In the case of `Cc1cccc(F)c1Nc1ccccc1CC(=O)O` [Compound 115], the inhibition in experiment [3] (setting [10]) was 0%; in experiment [3] (inhibitor incubated with enzyme for 15 min before addition of substrate, read-out: AA IC50), less than 50%.
Consider `O=C(O)Cc1ccccc1Nc1c(Cl)cc(Br)cc1Cl` [Compound 116], for which the inhibition in experiment [3] (setting [10]) is 55%.
As to `COc1ccc2c(c1)c(CC(=O)O)cn2C(=O)c1ccc(Cl)cc1` [DM-INDO], the negative logarithm of the IC50 (pIC50) is less than 4.60 in experiment [4] (50 μM AA, 15 min preincubation, LC-MS/MS, read-out: IC50, COX-2 oxygenation of arachidonic acid) and 6.60 in experiment [4] (setting [11]).
In the case of `COc1ccc2c(c1)c(CC(=O)N(C)C)c(C)n2C(=O)c1ccc(Cl)cc1` [D], the results for the pIC50 in experiment [2] (setting [8]) and in experiment [2] (setting [9]) were 6.37 and 4.72, respectively.
For `CCN(CC)C(=O)Cc1c(C)n(C(=O)c2ccc(Cl)cc2)c2ccc(OC)cc12` [E] the same measures were 6.23 and 4.64.
For `COc1ccc2c(c1)c(CC(=O)N1CCCCC1)c(C)n2C(=O)c1ccc(Cl)cc1` [F] the same measures were 6.19 and less than 4.60.
As for `COc1ccc2c(c1)c(CC(=O)N(C)CCc1ccccc1)c(C)n2C(=O)c1ccc(Cl)cc1` [G], the pIC50 is 6.15 in experiment [2] (setting [8]) and less than 4.60 in experiment [2] (setting [9]).
As for `Cc1ccc(Nc2c(F)cccc2Cl)c(CC(=O)O)c1` [Lumiracoxib], the “IC50, COX-2 oxygenation of arachidonic acid” value in experiment [4] (50 μM AA, 15 min preincubation, LC-MS/MS) is reported as “No inhibition”. For the same compound, the negative-log IC50 (pIC50) in experiment [4] (setting [11]) is 7.40.
On to `CS(=O)(=O)Nc1ccc([N+](=O)[O-])cc1OC1CCCCC1` [NS-398, reference compound], for which, in experiment [5] (2 hours), the “Brain AA levels” value was “significantly increased” and the “Brain PG levels” value was “profoundly decreased”. Further, the “Brain AEA levels” value in experiment [5] (2 hours, vs vehicle) is on record as “significantly increased”. Besides, the “Center distance travelled and center time in the open-field arena” value in experiment [6] was “significantly increased”.
For `CS(=O)(=O)c1ccc(C2=C(c3ccccc3)C(=O)OC2)cc1` [Rofecoxib], the pIC50 in experiment [4] (read-out: IC50, COX-2 oxygenation of 2-AG) was 7.07; in experiment [4] (read-out: IC50, COX-2 oxygenation of arachidonic acid), 6.28.
Consider `COc1ccc(-n2nc(C(F)(F)F)cc2-c2ccc(Cl)cc2)cc1` [SC-560, reference compound], for which, in experiment [5] (2 hours), the “Brain AA levels” value is “significantly increased” and the “Brain PG levels” value was “profoundly decreased”. Also, the “Brain AEA levels” value in experiment [5] (2 hours, vs vehicle) is on record as “significantly increased”. Further, the “Center distance travelled and center time in the open-field arena” value in experiment [6] was “did not have any significant behavioral effect; also recorded: no significant behavioral effects”.
With `COc1ccc2c(c1)c(CC(=O)O)c(C)n2C(=O)c1ccc(Cl)cc1` [indomethacin, reference compound], the “Brain AA levels” value in experiment [5] (2 hours) was “significantly increased”. In addition, the “Brain PG levels” value in experiment [5] (2 hours) is “profoundly decreased”. Further, the “Brain 2-AG levels” value in experiment [5] (10 mg/kg i.p. (highest dose), 2 hours, vs vehicle) is “significantly increased”. In addition, the “Brain AEA levels” value in experiment [5] (2 hours, vs vehicle) is given as “significantly increased”. Moreover, the “Brain AEA levels (Example 8)” value in experiment [5] (2 hours after i.p administration, dose not stated) was “increased”. For the same compound, the “Brain or lung PG levels (Example 8)” value in experiment [5] (dose not stated) is listed as “profoundly decreased”. Also, in experiment [7], the “PG levels in peripheral tissues” value is “robustly decreased”. In addition, the “Center distance travelled and center time in the open-field arena” value is on record as “significantly increased” in experiment [6] and “increased” in experiment [6] (listed as Indomethacin).
